Test results reported in ChEMBL document CHEMBL1201862, “PubChem BioAssay data set” (2004).
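Briefly, cells in 96-well plates were exposed to five compound concentrations for 48 h, and endpoints were estimated by linear interpolation. GI50: concentration for 50% inhibition of growth.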 The source made the active and inactive calls. Cut-off read from the data, not from the text of the source: active = GI50 up to about 1.1 µM and inactive = higher.

Legend:
Test in all cases: growth of human tumour cells (NCI), 48 h
[1] = test system: TK-10
[2] = test system: SK-MEL-28
[3] = test system: NCI-H460
[4] = test system: OVCAR-3
[5] = test system: LOX IMVI
[6] = test system: NCI-H226
[7] = test system: 786-0
[8] = test system: DU-145
[9] = test system: OVCAR-8
[10] = test system: COLO 205
[11] = test system: MDA-MB-231
[12] = test system: IGROV-1
[13] = test system: RXF 393
[14] = test system: RPMI-8226
[15] = test system: HOP-62
[16] = test system: OVCAR-5
[17] = test system: HCT-15
[18] = test system: UACC-257
[19] = test system: EKVX
[20] = test system: SR

SMILES	GI50 [1]	GI50 [2]	GI50 [3]	GI50 [4]	GI50 [5]	GI50 [6]	GI50 [7]	GI50 [8]	GI50 [9]	GI50 [10]	GI50 [11]	GI50 [12]	GI50 [13]	GI50 [14]	GI50 [15]	GI50 [16]	GI50 [17] [µM]	GI50 [18]	GI50 [19]	GI50 [20]
O=C1NC(=S)NC(=O)C1C(c1ccc(O)cc1)C1C(=O)NC(=S)NC1=O.c1ccncc1	> 100 µM (inactive)	> 100 µM (inactive)	> 100 µM (inactive)	> 100 µM (inactive)	> 100 µM (inactive)	> 100 µM (inactive)	> 100 µM (inactive)	> 100 µM (inactive)	> 100 µM (inactive)	> 100 µM (inactive)	> 100 µM (inactive)	> 100 µM (inactive)	> 100 µM (inactive)	> 100 µM (inactive)	> 100 µM (inactive)	> 100 µM (inactive)	> 100	> 100 µM (inactive)		
N#CC12CCC(O)C(CC1)C2=O (stereo not given)	> 100 µM (inactive)	> 100 µM (inactive)	70 µM (inactive)	> 100 µM (inactive)	21.5 µM (inactive)	> 100 µM (inactive)	> 100 µM (inactive)		> 100 µM (inactive)	87.9 µM (inactive)		> 100 µM (inactive)	> 100 µM (inactive)	26.9 µM (inactive)	> 100 µM (inactive)	> 100 µM (inactive)	> 100	> 100 µM (inactive)	> 100 µM (inactive)	27.3 µM (inactive)
O=C1NC(NNc2ccccc2)=N/C1=C\c1ccco1	18.3 µM (inactive)	25.4 µM (inactive)	22.4 µM (inactive)	17.5 µM (inactive)			17.4 µM (inactive)	17.5 µM (inactive)	17.6 µM (inactive)	12.6 µM (inactive)	20 µM (inactive)	15.7 µM (inactive)	13.4 µM (inactive)	16.3 µM (inactive)	33.9 µM (inactive)	37.7 µM (inactive)	16	21.1 µM (inactive)	18.7 µM (inactive)	
Cc1ccc(NC(=O)C(=O)C(C#N)c2nc(-c3ccc(-c4ccccc4)cc3)cs2)c(C)c1 (stereo not given)	> 100 µM (inactive)	> 100 µM (inactive)	> 100 µM (inactive)	> 100 µM (inactive)	> 100 µM (inactive)	> 100 µM (inactive)	> 100 µM (inactive)		> 100 µM (inactive)	> 100 µM (inactive)		> 100 µM (inactive)	> 100 µM (inactive)	> 100 µM (inactive)	> 100 µM (inactive)	> 100 µM (inactive)	> 100	58.7 µM (inactive)	> 100 µM (inactive)	> 100 µM (inactive)
Cc1nnc(N)nc1C/C=C/C(C)Sc1ccc(Cl)cc1 (stereo not given)	15 µM (inactive)	12.3 µM (inactive)	7.55 µM (inactive)		4.4 µM (inactive)	2.04 µM (inactive)	8.41 µM (inactive)	11.9 µM (inactive)	16.5 µM (inactive)	19.1 µM (inactive)	20.1 µM (inactive)	3.41 µM (inactive)	7.28 µM (inactive)	> 21.7 µM (inactive)	6.47 µM (inactive)	10.9 µM (inactive)	12.8	10.8 µM (inactive)	4.61 µM (inactive)	
CCOc1ccc2nc(NC(=O)C(=O)C(c3cnc4ccccc4n3)[N+](=O)[O-])sc2c1 (stereo not given)	> 100 µM (inactive)		> 100 µM (inactive)	> 100 µM (inactive)	61 µM (inactive)	> 100 µM (inactive)	> 100 µM (inactive)		53.5 µM (inactive)		> 100 µM (inactive)	41.4 µM (inactive)	> 100 µM (inactive)	61.5 µM (inactive)	> 100 µM (inactive)	> 100 µM (inactive)	> 100	> 100 µM (inactive)	96.8 µM (inactive)	
COc1cc(/C=C2\CCc3cc(OC)c(OC)cc3C2=O)cc(OC)c1	24 µM (inactive)	15.8 µM (inactive)	5.41 µM (inactive)	4.47 µM (inactive)	6.3 µM (inactive)	5.04 µM (inactive)	4.66 µM (inactive)	9.98 µM (inactive)	9.02 µM (inactive)	3.28 µM (inactive)	12.9 µM (inactive)	7.35 µM (inactive)	4.9 µM (inactive)	12.8 µM (inactive)	7.94 µM (inactive)	24.2 µM (inactive)	3.62	19.7 µM (inactive)	24.3 µM (inactive)	
Cc1cccc(C)c1NC(=O)C(=O)CC(=O)CO	> 100 µM (inactive)	> 100 µM (inactive)	> 100 µM (inactive)	> 100 µM (inactive)	> 100 µM (inactive)	> 100 µM (inactive)	> 100 µM (inactive)		> 100 µM (inactive)	> 100 µM (inactive)		> 100 µM (inactive)	> 100 µM (inactive)	> 100 µM (inactive)	> 100 µM (inactive)	> 100 µM (inactive)	> 100	> 100 µM (inactive)	> 100 µM (inactive)	> 100 µM (inactive)
CCOC(=O)N[C@@H]1C2CC(=O)C(O2)[C@@H]1OC (stereo not given in full)	> 100 µM (inactive)	7.08 µM (inactive)	> 100 µM (inactive)	> 100 µM (inactive)	> 100 µM (inactive)	> 100 µM (inactive)	> 100 µM (inactive)		> 100 µM (inactive)	> 100 µM (inactive)		> 100 µM (inactive)	> 100 µM (inactive)	> 100 µM (inactive)	> 100 µM (inactive)	> 100 µM (inactive)	> 100	> 100 µM (inactive)	> 100 µM (inactive)	> 100 µM (inactive)
C[C@]12CCC[C@H](Cl)C1(O)C[C@H](C(=O)O)CC2 (stereo not given in full)	> 100 µM (inactive)	> 100 µM (inactive)	> 100 µM (inactive)	> 100 µM (inactive)	> 100 µM (inactive)	> 100 µM (inactive)	> 100 µM (inactive)		> 100 µM (inactive)	> 100 µM (inactive)		> 100 µM (inactive)	> 100 µM (inactive)	> 100 µM (inactive)	> 100 µM (inactive)	> 100 µM (inactive)	> 100	> 100 µM (inactive)	> 100 µM (inactive)	> 100 µM (inactive)
Cc1c(Cl)ccc2c1NC(=O)C2(O)CC(=O)c1ccc(Cl)cc1 (stereo not given)	> 100 µM (inactive)	> 94.4 µM (inactive)	29.6 µM (inactive)	57.3 µM (inactive)	19.7 µM (inactive)	> 55.2 µM (inactive)	47.1 µM (inactive)		34.9 µM (inactive)	32.4 µM (inactive)		> 100 µM (inactive)	31.2 µM (inactive)	30.8 µM (inactive)	97.3 µM (inactive)	> 100 µM (inactive)	28.2	23.7 µM (inactive)	> 55.8 µM (inactive)	13.9 µM (inactive)
CC(=O)Nc1ccc(/C=C/C(=O)c2sc(-n3nc(-c4ccccc4)cc3-c3ccccc3)nc2C)cc1	> 10 µM (inactive)	> 10 µM (inactive)	> 10 µM (inactive)	> 10 µM (inactive)	> 10 µM (inactive)	> 10 µM (inactive)	> 10 µM (inactive)		> 10 µM (inactive)	> 10 µM (inactive)		> 10 µM (inactive)	> 10 µM (inactive)	> 10 µM (inactive)	> 10 µM (inactive)	> 10 µM (inactive)	> 10	80.9 µM (inactive)	8.99 µM (inactive)	> 10 µM (inactive)
Cn1nc(-c2ccccc2)c2c(/C=C/c3ccccc3)onc2c1=O	> 100 µM (inactive)	> 100 µM (inactive)	> 100 µM (inactive)	50.6 µM (inactive)	> 100 µM (inactive)	> 100 µM (inactive)	33 µM (inactive)		33.7 µM (inactive)	> 100 µM (inactive)		> 100 µM (inactive)	46.1 µM (inactive)	> 100 µM (inactive)	41.8 µM (inactive)	> 100 µM (inactive)	> 100	> 100 µM (inactive)	67.1 µM (inactive)	95.7 µM (inactive)
C/C(CC(O)(/C=N/O)c1ccccc1)=N/O (stereo not given)	> 100 µM (inactive)	> 100 µM (inactive)	> 100 µM (inactive)	> 100 µM (inactive)	> 100 µM (inactive)	> 100 µM (inactive)	> 100 µM (inactive)		> 100 µM (inactive)		> 100 µM (inactive)	> 100 µM (inactive)		> 100 µM (inactive)	> 100 µM (inactive)	> 100 µM (inactive)	> 100	> 100 µM (inactive)	> 100 µM (inactive)	> 100 µM (inactive)
C=CCC12CC(=O)CCC1c1ccc(OC)cc1C2=O (stereo not given)	> 100 µM (inactive)	> 100 µM (inactive)	> 100 µM (inactive)	> 100 µM (inactive)	> 100 µM (inactive)	> 100 µM (inactive)	> 100 µM (inactive)		> 100 µM (inactive)	> 100 µM (inactive)		> 100 µM (inactive)	> 100 µM (inactive)	> 100 µM (inactive)	> 100 µM (inactive)	> 100 µM (inactive)	> 100	> 100 µM (inactive)	> 100 µM (inactive)	> 100 µM (inactive)
COc1cc(C)c(C)c(OC(=O)c2c(C)c(C)c(OC)c(C)c2OC)c1C	25.6 µM (inactive)	20.4 µM (inactive)	3.98 µM (inactive)	2.02 µM (inactive)	4.75 µM (inactive)	15.7 µM (inactive)	12.3 µM (inactive)		19.5 µM (inactive)	3.18 µM (inactive)		8.67 µM (inactive)	13 µM (inactive)	13.6 µM (inactive)	15 µM (inactive)	28.8 µM (inactive)	3.68	17.8 µM (inactive)	15.3 µM (inactive)	4.23 µM (inactive)
